Measurements as given in patent publication US10604509B2, “Nrf2 regulators” (GlaxoSmithKline Intellectual Property Development Limited, priority 2015, dated 2020).
Structures can show the parent of a compound that is named as a salt. Where two headings read alike, the source gives them in different places.

Tested on: NQO1 specific enzyme activity in BEAS-2B cells
Test: BEAS-2B NQO1 MTT assay
Assay type: cell-based
Conditions: BEAS-2B cells, 48 hours with compound, MTT readout, read-out: EC50 of NQO1 specific activity induction
Source text: NAD(P)H:quinone oxidoreductase 1 (NQO1), also called DT diaphorase, is a homodimeric FAD-containing enzyme that catalyzes obligatory NAD(P)H-dependent two-electron reductions of quinones and protects cells against the toxic and neoplastic effects of free radicals and reactive oxygen species arising from one-electron reductions. The transcription of NQO1 is finely regulated by NRF2, and thus NQO1 activity is a good marker for NRF2 activation. On day one, frozen BEAS-2B cells (ATCC) are thawed in a water bath, counted, and re-suspended at a concentration of 250,000 cells/mL. Fifty microliters of cells are plated in 384 well black clear-bottomed plates. Plates are incubated at 37° C., 5% CO2 overnight. On day two, plates are centrifuged and 50 nL of compound or controls are added to the cells. Plates are then incubated at 37° C., 5% CO2 for 48 hours. On day four, medium is aspirated from the plate and crude cell lysates are made by adding 13 uL of 1× Cell Signaling Technologies lysis buffer with 1 Complete, Mini, EDTA-free Protease Inhibitor Tablet (Roche) for each 10 mL of lysis buffer. After lysis plates are incubated for 20 minutes at room temperature. Two microliters of lysate are removed for use in Cell Titer Glo assay (Promega) and MTT cocktail is prepared (Prochaska et. al. 1998) for measurement of NQO1 activity. Fifty microliters of MTT cocktail is added to each well, plate is centrifuged, and analyzed on an Envision plate reader (Perkin Elmer) using Absorbance 570 nm label for 30 minutes. Product formation is measured kinetically and the EC50 of NQO1 specific activity induction is calculated by plotting the change in absorbance (Delta OD/min) versus the log of compound concentration followed by 3-parameter fitting.

For `CC[C@@H]1CN(Cc2nc(C(c3ccc4c(nnn4C)c3C)C(C)(C)C(=O)O)ccc2C)Cc2cnccc2O1` (stereo partly drawn) [Example 212, 3-(1,4-Dimethyl-1H-benzo[d][1,2,3]triazol-5-yl)-3-(6-(((R)-2-ethyl-2,3-dihydropyrido[3,4-f][1,4]oxazepin-4(5H)-yl)methyl)-5-methylpyridin-2-yl)-2,2-dimethylpropanoic Acid, Formic Acid Salt], the EC50 (Homo sapiens, BEAS-2B, 48 h) was 0.01 to 0.1 µM.

`CC[C@@H]1CN(Cc2cc(C(CCc3cn(CC)nn3)C(C)C(=O)O)ccc2C)Cc2ccccc2O1` (single isomer, unassigned; isomer 1) [Example 118] was tested, and the EC50 was 1 to 10 µM.

`Cc1ccc(C(c2ccc3c(nnn3C)c2C)C(C)(C)C(=O)O)cc1CN1CCCn2cncc2C1` (stereo not shown) [Example 37, 3-(3-((6,7-Dihydro-5H-imidazo[1,5-a][1,4]diazepin-8(9H)-yl)methyl)-4-methylphenyl)-3-(1,4-dimethyl-1H-benzo[d][1,2,3]triazol-5-yl)-2,2-dimethylpropanoate, Sodium salt] gave an EC50 (Homo sapiens, BEAS-2B, 48 h) of 1 to 10 µM.

In the case of `Cc1cc2c(cn1)CN(Cc1cc(C(CC(=O)O)c3ccc4c(nnn4C)c3C)ccc1C)CC(C)(C)O2` (stereo not shown) [Example 108, 3-(1,4-dimethyl-1H-benzo[d][1,2,3]triazol-5-yl)-3-(4-methyl-3-((2,2,8-trimethyl-2,3-dihydropyrido[3,4-f][1,4]oxazepin-4(5H)-yl)methyl)phenyl)propanoic Acid, Formic Acid Salt], the EC50 (Homo sapiens, BEAS-2B, 48 h) is reported as 1 to 10 µM.

For `CC[C@@H]1CN(Cc2cc([C@H](c3ccc4c(nnn4CC)c3C)C(C)(C)C(=O)O)ccc2C)Cc2cnccc2O1` [Example 189, (R)-3-(3-(((R)-2-ethyl-2,3-dihydropyrido[3,4-f][1,4]oxazepin-4(5H)-yl)methyl)-4-methylphenyl)-3-(1-ethyl-4-methyl-1H-benzo[d][1,2,3]triazol-5-yl)-2,2-dimethylpropanoic Acid], the EC50 (Homo sapiens, BEAS-2B, 48 h) was 0.001 to 0.01 µM.

`CC[C@@H]1CN(Cc2cc(C(c3ccc4c(nnn4C)c3C)C(C)(C)C(=O)O)ccc2C)Cc2cccc(F)c2O1` (stereo partly drawn) [Example 34, 3-(1,4-Dimethyl-1H-benzo[d][1,2,3]triazol-5-yl)-3-(3-(((R)-2-ethyl-9-fluoro-2,3-dihydrobenzo[f][1,4]oxaz-epin-4(5H)-yl)methyl)-4-methylphenyl)-2,2-dimethylpropanoic acid, formic acid salt] gave an EC50 (Homo sapiens, BEAS-2B, 48 h) of 0.1 to 1 µM.

With `Cc1ccc(C(CC(=O)O)c2ccc3c(nnn3C)c2C)cc1CN1Cc2cc(C#N)ccc2OC(C)(C)C1` (single isomer, unassigned) [Example 172] the EC50 was 0.01 to 0.1 µM.

For `Cc1ccc(C(CC(=O)O)c2ccc3c(nnn3C)c2C)cc1CN1CCOc2ccccc2C1` (stereo not shown) [Example 1, 3-(3-((2,3-Dihydrobenzo[f][1,4]oxazepin-4(5H)-yl)methyl)-4-methylphenyl)-3-(1,4-dimethyl-1H-benzo[d][1,2,3]triazol-5-yl)propanoic Acid, Trifluoroacetic Acid Salt], the EC50 (Homo sapiens, BEAS-2B, 48 h) was 1 to 10 µM.

Work on `CC[C@@H]1CN(Cc2cc(C(CC(=O)O)c3cnc4c(nnn4C)c3C)ccc2C)Cc2ccccc2O1` (stereo partly drawn) [Example 47, 3-(3,7-Dimethyl-3H-[1,2,3]triazolo[4,5-b]pyridin-6-yl)-3-(3-(((R)-2-ethyl-2,3-dihydrobenzo[f][1,4]oxazepin-4(5H)-yl)methyl)-4-methylphenyl)propanoic Acid, Trifluoroacetic Acid Salt] yielded an EC50 (Homo sapiens, BEAS-2B, 48 h) of 0.1 to 1 µM.

In the case of “3-(1,4-dimethyl-1H-benzo[d][1,2,3]triazol-5-yl)-3-(3-((8-methoxy-4-methyl-4,5-dihydro-1H-benzo[c]azepin-2(3H)-yl)methyl)-4-methylphenyl)propanoic Acid [Example 7]”, the EC50 is reported as 1 to 10 µM.

In the case of `CCn1nnc2c(C)c([C@H](c3ccc(C)c(CN4Cc5ccccc5OC(C)(C)C4)c3)[C@@H](C)C(=O)O)ccc21` [Example 208, (2R,3S)-3-(3-((2,2-Dimethyl-2,3-dihydrobenzo[f][1,4]oxazepin-4(5H)-yl)methyl)-4-methylphenyl)-3-(1-ethyl-4-methyl-1H-benzo[d][1,2,3]triazol-5-yl)-2-methylpropanoic acid, 2 Trifluoroacetic Acid Salt], the EC50 (Homo sapiens, BEAS-2B, 48 h) is reported as 0.001 to 0.01 µM.

`Cc1ccc(C(CC(=O)O)c2ccc3c(nnn3C)c2C)cc1Cn1ccnc1CC1CCCC1` (stereo not shown) [Example 148, 3-(3-((2-(Cyclopentylmethyl)-1H-imidazol-1-yl)methyl)-4-methylphenyl)-3-(1,4-dimethyl-1H-benzo[d][1,2,3]triazol-5-yl)propanoic acid] gave an EC50 (Homo sapiens, BEAS-2B, 48 h) of 0.1 to 1 µM.

`Cc1ccc([C@@H](CC(=O)O)c2ccc3c(nnn3C)c2C)cc1CN1Cc2ccccc2OC(C)(C)C1` [Example 110, (R)-3-(1,4-dimethyl-1H-benzo[d][1,2,3]triazol-5-yl)-3-(3-((2,2-dimethyl-2,3-dihydrobenzo[f][1,4]oxazepin-4(5H)-yl)methyl)-4-methylphenyl)propanoic Acid, Formic Acid Salt] gave an EC50 (Homo sapiens, BEAS-2B, 48 h) of under 0.001 µM.

In the case of `CCOC(=O)C(C)(C)[C@@H](c1ccc(C)c(CN2Cc3cnccc3O[C@H](CC)C2)c1)c1ccc2c(nnn2C)c1C` [Example 257, (S)-ethyl 3-(1,4-dimethyl-1H-benzo[d][1,2,3]triazol-5-yl)-3-(3-(((R)-2-ethyl-2,3-dihydropyrido[3,4-f][1,4]oxazepin-4(5H)-yl)methyl)-4-methylphenyl)-2,2-dimethylpropanoate], the EC50 (Homo sapiens, BEAS-2B, 48 h) is reported as 0.1 to 1 µM.

For `Cc1ccc(C(c2ccc3c(nnn3C)c2C)C(C)(C)C(=O)O)cc1Cn1ccnc1CC1CCCCC1` (stereo not shown) [Example 143, 3-(3-((2-(Cyclohexylmethyl)-1H-imidazol-1-yl)methyl)-4-methylphenyl)-3-(1,4-dimethy-1H-benzo[d][1,2,3]triazol-5-yl)-2,2-dimethylpropanoic acid, trifluoroacetic acid salt], the EC50 (Homo sapiens, BEAS-2B, 48 h) was 1 to 10 µM.

`Cc1ccc(C(CC(=O)O)c2ccc3c(nnn3C)c2C)cc1Cn1ccnc1CC1CCCCC1` (stereo not shown) [Example 127, 3-(3-((2-(Cyclohexylmethyl)-1H-imidazol-1-yl)methyl)-4-methylphenyl)-3-(1,4-dimethyl1H-benzo[d][1,2,3]triazol-5-yl)propanoic Acid] was tested, and the EC50 (Homo sapiens, BEAS-2B, 48 h) was 0.01 to 0.1 µM.

In the case of `Cc1ccc(C(CC(=O)O)c2ccc3c(nnn3C)c2C)cc1CN1Cc2cc(C#N)ccc2OC(C)(C)C1` (single isomer, unassigned) [Example 171], the EC50 (Homo sapiens, BEAS-2B, 48 h) is reported as 0.01 to 0.1 µM.

For `CCn1nnc2c(C)c([C@@H](c3ccc(C)c(CN4Cc5ccccc5OC(C)(C)C4)c3)C(C)(C)C(=O)O)ccc21` (single isomer, unassigned; enantiomer a) [Example 206], the EC50 (Homo sapiens, BEAS-2B, 48 h) was 0.001 to 0.01 µM.

With `Cc1ccc(C(c2ccc3c(nnn3C)c2C)C(C)(C)C(=O)O)cc1CN1CCCC(n2cccn2)C1` (stereo not shown) [Example 162, 3-(3-((3-(1H-Pyrazol-1-yl)piperidin-1-yl)methyl)-4-methylphenyl)-3-(1,4-dimethyl-1H-benzo[d][1,2,3]triazol-5-yl)-2,2-dimethylpropanoic Acid] the EC50 (Homo sapiens, BEAS-2B, 48 h) was 0.1 to 1 µM.

`CC[C@@H]1CN(Cc2cc([C@@H](c3ccc4c(nnn4C)c3C)C(C)(C)C(=O)OCOP(=O)(O)Oc3ccccc3)ccc2C)Cc2cnccc2O1` [Example 254] was tested, and the EC50 (Homo sapiens) was 0.001 to 0.01 µM.

`Cc1ccc([C@@H](c2ccc3c(nnn3C)c2C)C(C)(C)C(=O)O)cc1Cn1ccnc1CN1CCCCC1` [Example 150, (S)-3-(1,4-Dimethyl-1H-benzo[d][1,2,3]triazol-5-yl)-2,2-dimethyl-3-(4-methyl-3-((2-(piperidin-1-ylmethyl)-1H-imidazol-1-yl)methyl)phenyl) propanoic acid] was tested, and the EC50 (Homo sapiens, BEAS-2B, 48 h) was under 0.001 µM.

Compound `CC[C@@H]1CN(Cc2cc(C(c3ccc4c(c3)nnn4C)C(C)(C)C(=O)O)ccc2C)Cc2ccccc2O1` (stereo partly drawn) [Example 103, Ammonium 3-(3-(((R)-2-Ethyl-2,3-dihydrobenzo[f][1,4]oxazepin-4(5H)-yl)methyl)-4-methylphenyl)-2,2-dimethyl-3-(1-methyl-1H-benzo[d][1,2,3]triazol-5-yl)propanoate] has an EC50 (Homo sapiens, BEAS-2B, 48 h) of under 0.001 µM.

For `Cc1ccc(C(CC(=O)O)c2ccc3c(nnn3C)c2C)cc1CN1Cc2ncccc2OC(C)(C)C1` (stereo in doubt) [Example 170, (S)-3-(1,4-Dimethyl-1H-benzo[d][1,2,3]triazol-5-yl)-3-(3-((2,2-dimethyl-2,3-dihydropyrido[2,3-f][1,4]oxazepin-4(5H)-yl)methyl)-4-methylphenyl)propanoic acid, 0.5 Formlc acid salt], the EC50 was 0.01 to 0.1 µM.

`Cc1ccc2c(c1)OC(C)(C)CN(Cc1cc([C@@H](CC(=O)O)c3ccc4c(nnn4C)c3C)ccc1C)C2` [Example 179, (R)-3-(1,4-Dimethyl-1H-benzo[d][1,2,3]triazol-5-yl)-3-(4-methyl-3-((2,2,8-trimethyl-2,3-dihydrobenzo[f][1,4]oxazepin-4(5H)-yl)methyl)phenyl) propanoic acid] showed an EC50 (Homo sapiens, BEAS-2B, 48 h) of 0.01 to 0.1 µM.

With `Cc1ccc(C(c2ccc3c(nnn3C)c2C)C(C)(C)C(=O)O)cc1Cn1ccnc1CC1CCCOCC1` (stereo not shown) [Example 245, 3-(1,4-Dimethyl-1H-benzo[d][1,2,3]triazol-5-yl)-2,2-dimethyl-3-(4-methyl-3-((2-(oxepan-4-ylmethyl)-1H-imidazol-1-yl)methyl)phenyl)propanoic Acid] the EC50 (Homo sapiens, BEAS-2B, 48 h) was 0.01 to 0.1 µM.
